Patent US20230265151A1, “GIP/GLP1 CO-AGONIST COMPOUNDS” (priority 2020, published 2023)
Read-outs that look alike come from different tables or passages of the source.

Tests used:
Assay type in all cases: cell-based
hGIPR = molecular target: T1, hGIPR (Homo sapiens, UniProt P48546); assay: Functional cAMP formation (HTRF) in HEK-293 clonal cells expressing hGIPR, 0.1% bovine casein, without or with 1.0% human serum albumin; conditions: for Emax: read-out: hGIPR Emax, % ± SEM; for EC50: geometric mean, read-out: hGIPR EC50, nM (SEM, n)
T1 construct: expressed in transfected cells
T1 sequence (P48546 22-466): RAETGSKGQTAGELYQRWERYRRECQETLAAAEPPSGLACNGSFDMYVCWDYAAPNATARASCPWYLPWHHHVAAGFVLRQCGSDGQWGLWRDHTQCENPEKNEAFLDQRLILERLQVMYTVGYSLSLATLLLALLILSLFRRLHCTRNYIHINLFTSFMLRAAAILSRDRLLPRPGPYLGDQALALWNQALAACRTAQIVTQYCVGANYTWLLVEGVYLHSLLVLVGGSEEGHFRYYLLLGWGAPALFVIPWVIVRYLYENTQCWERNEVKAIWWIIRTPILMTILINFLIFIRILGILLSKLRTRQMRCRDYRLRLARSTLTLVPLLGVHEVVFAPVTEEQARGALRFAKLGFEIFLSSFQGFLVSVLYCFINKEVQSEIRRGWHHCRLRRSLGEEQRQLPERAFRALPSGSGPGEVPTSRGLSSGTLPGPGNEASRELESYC
In short: (§1)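 Cells were stimulated with peptide for 30 min at 37° C, then lysed in buffer carrying cAMP-d2 and anti-cAMP Eu3+-cryptate for a competitive HTRF read after at least 60 min at room temperature. The 665/620 nm ratio was converted to nM cAMP against a standard curve.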

hGCGR = molecular target: T2, hGCGR (Homo sapiens, UniProt P47871); assay: Functional cAMP formation (HTRF) in HEK-293 clonal cells expressing hGCGR, 0.1% bovine casein, without or with 1.0% human serum albumin; conditions: geometric mean, read-out: hGCGR EC50, nM (SEM, n)
T2 construct: expressed in transfected cells
T2 sequence (P47871 26-477): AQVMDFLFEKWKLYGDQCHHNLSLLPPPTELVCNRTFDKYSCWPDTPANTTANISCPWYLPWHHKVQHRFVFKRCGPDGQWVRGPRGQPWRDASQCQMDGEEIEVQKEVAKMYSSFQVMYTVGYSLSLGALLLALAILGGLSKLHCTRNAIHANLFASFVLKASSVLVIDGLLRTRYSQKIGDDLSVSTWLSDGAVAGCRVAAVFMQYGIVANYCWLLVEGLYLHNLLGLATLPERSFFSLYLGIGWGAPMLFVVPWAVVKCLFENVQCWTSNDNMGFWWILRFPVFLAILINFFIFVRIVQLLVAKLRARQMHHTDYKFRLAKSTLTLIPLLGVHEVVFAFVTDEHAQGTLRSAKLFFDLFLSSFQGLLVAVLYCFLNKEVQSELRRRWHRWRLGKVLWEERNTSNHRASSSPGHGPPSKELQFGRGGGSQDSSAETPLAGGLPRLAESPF
In short: as §1

hGLP-1R = hGLP-1R (Homo sapiens, UniProt P43220); assay: Functional cAMP formation (HTRF) in HEK-293 clonal cells expressing hGLP-1R, 0.1% bovine casein, without or with 1.0% human serum albumin; parameters: expressed in transfected cells; conditions: 37° C.
hGLP-1R, sequence (P43220 24-463): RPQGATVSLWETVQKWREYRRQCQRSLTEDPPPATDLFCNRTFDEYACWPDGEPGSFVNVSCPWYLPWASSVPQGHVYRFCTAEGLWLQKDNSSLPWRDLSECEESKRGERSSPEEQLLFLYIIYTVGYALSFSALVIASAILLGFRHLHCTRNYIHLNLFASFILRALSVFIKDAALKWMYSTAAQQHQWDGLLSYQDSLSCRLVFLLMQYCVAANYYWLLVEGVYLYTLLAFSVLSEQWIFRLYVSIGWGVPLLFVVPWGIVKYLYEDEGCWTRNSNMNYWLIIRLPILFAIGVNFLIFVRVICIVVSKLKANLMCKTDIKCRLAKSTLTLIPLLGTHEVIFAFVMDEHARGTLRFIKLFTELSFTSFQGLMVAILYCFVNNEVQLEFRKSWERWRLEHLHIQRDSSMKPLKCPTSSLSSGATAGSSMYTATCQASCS
In short: as §1

[1] = HEK293, 0.1% bovine casein and 1.0% human serum albumin, 37° C., percent of maximal response to GIP(1-42)NH2
[2] = cAMP, incubated at 37° C., 0.1% bovine casein (no human serum albumin)
[3] = 0.1% bovine casein and 1.0% human serum albumin, 37° C.

Compound | Emax (hGIPR; [1]) [%] | Emax (hGIPR; HEK293, percent of maximal response to GIP(1-42)NH2, 37° C., 0.1% bovine casein, arithmetic mean) [%] | EC50 (hGIPR; [2]) [nM] | EC50 (hGCGR; [3]) [nM] | EC50 (hGCGR; [2]) [nM] | Emax (hGLP-1R; HEK293, 0.1% bovine casein and 1.0% human serum albumin, percent of maximal response to GLP-1(7-36)NH2, read-out: hGLP-1R Emax, % ± SEM) [%] | EC50 (hGIPR; [3]) [nM] | EC50 (hGLP-1R; 0.1% bovine casein and 1.0% human serum albumin, geometric mean, read-out: hGLP-1R EC50, nM (SEM, n)) [nM]
CC[C@H](C)[C@H](NC(=O)[C@H](CC(C)C)NC(=O)[C@](C)(Cc1ccc(O)cc1)NC(=O)[C@@H](CCC(=O)O)NC(=O)[C@@H](NC(=O)[C@H](Cc1ccccc1)NC(=O)[C@H](CCC(=O)O)NC(=O)C(C)(C)NC(=O)[C@H](CCC(N)=O)NC(=O)[C@H](C)NC(=O)[C@H](CCCCNC(=O)COCCOCCNC(=O)COCCOCCNC(=O)CC[C@H](NC(=O)CCCCCCCCCCCCC(=O)O)C(=O)O)NC(=O)[C@H](CCCN)NC(=O)[C@H](CC(=O)O)NC(=O)[C@H](CC(C)C)NC(=O)[C@](C)(CC(C)C)NC(=O)[C@@H](NC(=O)[C@H](CO)NC(=O)[C@H](Cc1cccc2ccccc12)NC(=O)[C@H](CC(=O)O)NC(=O)[C@H](CO)NC(=O)[C@@H](NC(=O)[C@](C)(Cc1ccccc1F)NC(=O)[C@@H](NC(=O)CNC(=O)[C@H](CCC(=O)O)NC(=O)C(C)(C)NC(=O)[C@@H](N)Cc1ccc(O)cc1)[C@@H](C)O)[C@@H](C)O)[C@@H](C)CC)[C@@H](C)CC)C(=O)N[C@@H](CCC(=O)O)C(=O)NCC(=O)NCC(=O)N[C@@H](CCCCNC(=O)COCCOCCNC(=O)COCCOCCNC(=O)CC[C@H](NC(=O)CCCCCCCCCCCCC(=O)O)C(=O)O)C(=O)N[C@@H](CO)C(=O)N[C@@H](CO)C(=O)NCC(=O)N[C@@H](C)C(=O)N1CCC[C@H]1C(=O)N1CCC[C@H]1C(=O)N1CCC[C@H]1C(=O)N[C@@H](CO)C(N)=O [Example 56] | 91.4 ± 1.04 | 90.3 ± 2.57 | 0.0138 | > 9950 | > 9950 | 123 ± 6.57 |  | 
CC[C@H](C)[C@H](NC(=O)[C@H](CCCN)NC(=O)[C@H](CC(=O)O)NC(=O)[C@H](CC(C)C)NC(=O)[C@](C)(CC(C)C)NC(=O)[C@@H](NC(=O)[C@H](CO)NC(=O)[C@H](Cc1ccncc1)NC(=O)[C@H](CC(=O)O)NC(=O)[C@H](CO)NC(=O)[C@@H](NC(=O)[C@](C)(Cc1ccccc1F)NC(=O)[C@@H](NC(=O)CNC(=O)[C@H](CCC(=O)O)NC(=O)C(C)(C)NC(=O)[C@@H](N)Cc1ccc(O)cc1)[C@@H](C)O)[C@@H](C)O)[C@@H](C)CC)C(=O)N[C@@H](C)C(=O)N[C@@H](CCC(N)=O)C(=O)NC(C)(C)C(=O)N[C@@H](CCCCNC(=O)COCCOCCNC(=O)COCCOCCNC(=O)CC[C@H](NC(=O)CCCc1ccc(C(C)(C)C)cc1)C(=O)O)C(=O)N[C@@H](Cc1ccccc1)C(=O)N[C@H](C(=O)N[C@H](CCC(=O)O)C(=O)N[C@@](C)(Cc1ccc(O)cc1)C(=O)N[C@@H](CC(C)C)C(=O)N[C@H](C(=O)N[C@@H](CCC(=O)O)C(=O)NCC(=O)NCC(=O)N1CCC[C@H]1C(=O)N[C@@H](CO)C(=O)N[C@@H](CO)C(=O)NCC(=O)N[C@@H](C)C(=O)N1CCC[C@H]1C(=O)N1CCC[C@H]1C(=O)N1CCC[C@H]1C(=O)N[C@@H](CO)C(=O)N[C@@H](CCCCNC(=O)COCCOCCNC(=O)COCCOCCNC(=O)CC[C@H](NC(=O)CCCc1ccc(C(C)(C)C)cc1)C(=O)O)C(N)=O)[C@@H](C)CC)[C@@H](C)CC [Example 205] | 72.1 |  | 0.0264 | > 9950 | > 9950 |  | 0.261 | 2.18
